What was measured:
[1] = system: plaques in thoracic aorta; details: 5-ALA 80 mg/kg i.p., then i.v. substrate (carbamide peroxide), 5Gy once, 7th day after therapy
Protocol: (1) Male New Zealand rabbits, bodyweight 3-4 kg, were fed with diet containing 1% cholesterol and pork fat, raised for 11 weeks, until atherosclerotic plaques occurred at vessels of eye ground at both sides and artery.
(2) The rabbits were anesthetized with ketamine and thiopental sodium.
(3) Target regions of plaques at artery to be treated were determined by total body CT plain scanning and CTA enhancing.
(4) Target regions of plaques at artery to be treated were sketched by a therapy planning system, to formulate a therapeutical plan suitable for RCDT, using GTV dose of up to 5.0Gy, irradiated once. Normal feeding was restored during the procedure.
(5) It was 2 h before the irradiation that 5-ALA (80 mg/kg in saline 5 ml) was intraperitoneally injected, carbamide peroxide (injection containing H2O2, 80 mg/kg) in 5 ml of saline was slowly injected via ear vein immediately before the irradiation, and the therapeutical plan was carried out immediately after the injection of carbamide peroxide.
(6) It was 5-7 days after irradiation the CTA was reexamined, and the situations of elimination of vascular plaques were recorded.
The plaques are used as target regions, positioned, and radiotherapy plan is formulated. It is 1.5 h after intraperitoneal injection of 5-ALA (80 mg/kg of body weight) that a substrate is intravenously dripped, the vascular plaques are irradiated with 5Gy once. […]

[2] = Suppression of the decomposition of H2O2 catalysed by haematoporphyrin and .OH, using .OH scavengers; details: 1.5% H2O2, 20% DMSO, 15% ethanol, 5% mannitol
Protocol: (4) 15 uM Haematoporphyrin derivative (HPD) was added, or 15 uM acidified porphyrin (Protoporphyrin IX, PpIX) was added.
(5) The vacuum bottles were irradiated with 10 MeV X-ray for about 1 min, dose of 5Gy, to start the decomposition reaction of H2O2. The reaction was terminated by stopping irradiation.

[3] = Decomposition of H2O2 catalysed by photofrin alone under weak alkali, 1O2 measured by DMA fluorescence; details: 15 uM, H2O2 lower than or equal to 0.15%, 25° C., 8 h, no activation
Protocol: (1) 10 ml vacuum bottles were used, and the vacuum bottles were totally sealed with Kodak photographic film light protecting paper.
(2) H2O2 solutions (in DMF: H2O=1:5) with different concentrations were added to the sealed vacuum bottles.
(3) 5 uM 9,10-dimethylanthracene (DMA) was added. DMA was a kind of ^1O2 specific indicator (probe), DMA had intensive fluorescence property, after binding to ^1O2, endorperoxide without fluorescence property was formed, so that the amount of the generated ^1O2 is in inverse proportion with the content of DMA.
(4) 15 uM Haematoporphyrin derivative was added, and reacted at 25° C. for 8 h.

NCC(=O)CCC(=O)O [5-ALA]
plaques in thoracic aorta by CTA visualization and MR [1]: completely disappeared

C[S+](C)[O-] [DMSO]
inhibition of 1O2 yield [2]: 75.1%

CCO [ethanol]
inhibition of 1O2 yield [2]: 43.0%

OC[C@@H](O)[C@@H](O)[C@H](O)[C@H](O)CO [mannitol]
inhibition of 1O2 yield [2]: 17.7%

Haematoporphyrin derivative
catalysis of the decomposition reaction of H2O2 to generate 1O2 [3]: cannot be catalyzed

— patent US20150141478A1, “SERIES OF DRUGS USING PHOTOFRIN TO CATALYZE DECOMPOSITION OF HYDROGEN PEROXIDE” (Wuxi Zhaozhen Radiation Technology Co., Ltd., priority 2012, published 2015)
